In patent US20220073536A1 (Rigel Pharmaceuticals, Inc., priority 2003, published 2022):
Structures can show the parent of a compound that is named as a salt.

Experiments:
[1] = test system: cultured human mast cells (CHMC); experiment: CHMC low cell density IgE activation: tryptase assay; format: cell-based; conditions: low cell density CHMC, IgE activation, tryptase readout
In short: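 CHMC were seeded at 1000–1500 cells/well in MT buffer and incubated 1 hr at 37 °C. They were then stimulated with anti-IgE for 30 min at 37 °C, with unstimulated wells as controls. Released tryptase in the supernatant was measured with a fluorogenic substrate after 30 min at room temperature.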

[2] = test system: cultured human mast cells (CHMC); experiment: CHMC low cell density ionomycin activation: tryptase assay; format: cell-based; conditions: low cell density CHMC, tryptase readout, 3 pt, read-out: LD Tryptase, CHMC, Iono, 3 pt
[3] = Homo sapiens, Mast cell, 3 pt, read-out: LD Tryptase, CHMC, IgE, 3 pt
[4] = Homo sapiens, Mast cell, 8 pt, read-out: LD Tryptase, CHMC, IgE, 8 pt
[5] = 8 pt, read-out: LD Tryptase, CHMC, IgE, 8 pt
[6] = 3 pt, read-out: LD Tryptase, CHMC, IgE, 3 pt

Q: With `COc1c(C)cc(Nc2ncc(F)c(Nc3ccc4c(c3)N(C)C(=O)C(C)(C)O4)n2)cc1C` [Compound 1033] as the molecule, how does the IC50 [1, 3] read?
A: < 10 µM

Q: And the IC50 [1, 4]?
A: < 10 µM

Q: What about the IC50 ([2]; Homo sapiens, Mast cell) of the same molecule?
A: < 10 µM

Q: With `Cc1cc(Nc2ncc(F)c(Nc3ccc4c(c3)N(C)C(=O)C(C)(C)O4)n2)cc(Cl)c1OC1CCCC1` [Compound 1034, N2-(3-Chloro-4-cyclopentyloxy-5-methylphenyl)-5-fluoro-N4-(3-oxo-2,2,4-trimethyl-benz[1,4]oxazin-6-yl)-2,4-pyrimidinediamine] as the molecule, how does the IC50 [1, 3] read?
A: < 10 µM

Q: And the IC50 ([2]; Homo sapiens, Mast cell)?
A: > 10 µM

Q: `CC1(C)Oc2ccc(Nc3nc(Nc4cccc(-c5cocn5)c4)ncc3F)cc2NC1=O` [Compound 1036, N4-(2,2-Dimethyl-3-oxo-4H-benz[1,4]oxazin-6-yl)-5-fluoro-N2-[3-(oxazol-4-yl)phenyl]-2,4-pyrimidinediamine] was tested. Which IC50 [1, 3] did it give?
A: < 10 µM

Q: And the IC50 [1, 4]?
A: < 10 µM

Q: And the IC50 ([2]; Homo sapiens, Mast cell)?
A: < 10 µM

Q: Which IC50 [1, 5] does the source give for `CNC(=O)COc1c(C)cc(Nc2ncc(F)c(Nc3ccc4c(n3)NC(=O)C(C)(C)O4)n2)cc1Cl` [Compound 1037, N2-[3-Chloro-5-methyl-4-(N-methylamino)carbonylmethyleneoxyphenyl]-N4-(2,2-dimethyl-3-oxo-4H-5-pyrid[1,4]oxazin-6-yl)-5-fluoro-2,4-pyrimidinediamine] here?
A: < 10 µM

Q: What about the IC50 [2] of the same molecule?
A: > 10 µM

Q: What does the source list for `CCOC(=O)COc1c(C)cc(Nc2ncc(F)c(Nc3ccc4c(n3)NC(=O)C(C)(C)O4)n2)cc1C` [Compound 1038, N2-(3,5-Dimethyl-4-ethoxycarbonylmethyleneoxyphenyl)-N4-(2,2-dimethyl-3-oxo-4H-5-pyrid[1,4]oxazin-6-yl)-5-fluoro-2,4-pyrimidinediamine]?
A: IC50 [1, 5]: < 10 µM; IC50 [2]: > 10 µM

Q: With `Cc1cc(Nc2ncc(F)c(Nc3ccc4c(c3)NC(=O)C(C)(C)O4)n2)cc(Cl)c1OC(C)C` [Compound 1039, N2-(3-Chloro-4-isopropoxy-5-methylphenyl)-N4-(2,2-dimethyl-3-oxo-4H-benz[1,4]oxazin-6-yl)-5-fluoro-2,4-pyrimidinediamine] as the molecule, how does the IC50 [1, 4] read?
A: < 10 µM

Q: What about the IC50 ([2]; Homo sapiens, Mast cell) of the same molecule?
A: < 10 µM

Q: With `Cc1cc(Nc2ncc(F)c(Nc3ccc4c(n3)NC(=O)C(C)(C)O4)n2)cc(Cl)c1OC(C)C` [Compound 1040, N2-(3-Chloro-4-isopropoxy-5-methylphenyl)-N4-(2,2-dimethyl-3-oxo-4H-5-pyrid[1,4]oxazin-6-yl)-5-fluoro-2,4-pyrimidinediamine] as the molecule, how does the IC50 [1, 5] read?
A: > 10 µM

Q: And the IC50 [2]?
A: < 10 µM

Q: How did the IC50 [1, 6] turn out when `CNC(=O)COc1c(C)cc(Nc2ncc(F)c(Nc3ccc4c(n3)NC(=O)C(C)(C)O4)n2)cc1C` [Compound 1041, N2-[3,5-Dimethyl-4-(N-methylamino)carbonylmethyleneoxyphenyl]-N4-(2,2-dimethyl-3-oxo-4H-5-pyrid[1,4]oxazin-6-yl)-5-fluoro-2,4-pyrimidinediamine] was run?
A: < 10 µM

Q: What about the IC50 [1, 5] of the same molecule?
A: < 10 µM

Q: And the IC50 [2]?
A: < 10 µM

Q: How did the IC50 [1, 6] turn out when `CCOC(=O)COc1c(C)cc(Nc2ncc(F)c(Nc3ccc4c(n3)NC(=O)C(C)(C)O4)n2)cc1Cl` [Compound 1042, N2-(3-Chloro-4-ethoxycarbonylmethyleneoxy-5-methylphenyl)-N4-(2,2-dimethyl-3-oxo-4H-5-pyrid[1,4]oxazin-6-yl)-5-fluoro-2,4-pyrimidinediamine] was run?
A: > 10 µM

Q: What about the IC50 [2] of the same molecule?
A: > 10 µM

Q: Which results are given for `Cc1cc(Nc2ncc(F)c(Nc3ccc4c(n3)NC(=O)C(C)(C)O4)n2)cc(Cl)c1OCC(=O)NCC(O)CO` (stereo not drawn) [Compound 1043, N2-[3-Chloro-4-[N-(2,3-dihydroxypropyl)amino]carbonylmethyleneoxy-5-methylphenyl]-N4-(2,2-dimethyl-3-oxo-4H-5-pyrid[1,4]oxazin-6-yl)-5-fluoro-2,4-pyrimidinediamine]?
A: IC50 [1, 6]: < 10 µM; IC50 [1, 5]: < 10 µM; IC50 [2]: > 10 µM

Q: Which results are given for `Cc1cc(Nc2ncc(F)c(Nc3ccc4c(n3)NC(=O)C(C)(C)O4)n2)cc(C)c1OCC(=O)NC1CCCC1` [Compound 1044, N2-[3,5-Dimethyl-4-(N-cyclopentylamino)carbonylmethyleneoxyphenyl]-N4-(2,2-dimethyl-3-oxo-4H-5-pyrid[1,4]oxazin-6-yl)-5-fluoro-2,4-pyrimidinediamine]?
A: IC50 [1, 6]: > 10 µM; IC50 [1, 5]: > 10 µM; IC50 [2]: > 10 µM

Q: Which results are given for `CNC(=O)COc1cccc(Nc2ncc(F)c(Nc3ccc4c(c3)NC(=O)C(F)(F)O4)n2)c1` [Compound 1045, N4-(2,2-Difluoro-3-oxo-4H-benz[1,4]oxazin-6-yl)-5-fluoro-N2-[3-(N-methylamino)carbonylmethyleneoxyphenyl]-2,4-pyrimidinediamine Hydrogen Chloride Salt]?
A: IC50 [1, 6]: < 10 µM; IC50 [1, 5]: < 10 µM; IC50 [2]: > 10 µM

Q: For `CNC(=O)COc1cccc(Nc2ncc(F)c(Nc3ccc4c(c3)NC(=O)C(F)(F)O4)n2)c1` [Compound 1046, N4-(2,2-Difluoro-3-oxo-4H-benz[1,4]oxazin-6-yl)-5-fluoro-N2-[3-(N-methylamino)carbonylmethyleneoxyphenyl]-2,4-pyrimidinediamine Methanesulfonic Acid Salt], which IC50 [1, 6] is on record?
A: < 10 µM

Q: What about the IC50 [1, 5] of the same molecule?
A: < 10 µM

Q: And the IC50 [2]?
A: > 10 µM

Q: For `CC1(C)Oc2ccc(Nc3nc(Nc4ccc5cn[nH]c5c4)ncc3F)cc2NC1=O` [Compound 1047, N4-(2,2-Dimethyl-3-oxo-4H-benz[1,4]oxazin-6-yl)-5-fluoro-N2-(indazol-6-yl)-2,4-pyrimidinediamine Methanesulfonic Acid Salt], which IC50 [1, 3] is on record?
A: > 10 µM

Q: What about the IC50 [1, 4] of the same molecule?
A: < 10 µM

Q: And the IC50 ([2]; Homo sapiens, Mast cell)?
A: > 10 µM

Q: With `CCn1ncc2ccc(Nc3ncc(F)c(Nc4ccc5c(n4)NC(=O)C(C)(C)O5)n3)cc21` [Compound 1049, N4-(2,2-Dimethyl-3-oxo-4H-5-pyrid[1,4]oxazin-6-yl)-N2-(1-ethylindazol-6-yl)-5-fluoro-2,4-pyrimidinediamine] as the molecule, how does the IC50 [1, 6] read?
A: < 10 µM

Q: And the IC50 [1, 5]?
A: < 10 µM

Q: What about the IC50 [2] of the same molecule?
A: > 10 µM

Q: Which IC50 [1, 6] does the source give for `CC(C)n1ncc2ccc(Nc3ncc(F)c(Nc4ccc5c(n4)NC(=O)C(C)(C)O5)n3)cc21` [Compound 1050, N4-(2,2-Dimethyl-3-oxo-4H-5-pyrid[1,4]oxazin-6-yl)-N2-(1-isopropylindazol-6-yl)-5-fluoro-2,4-pyrimidinediamine] here?
A: < 10 µM

Q: And the IC50 [1, 5]?
A: < 10 µM

Q: What about the IC50 [2] of the same molecule?
A: > 10 µM

Q: `CC1(C)CNc2nc(Nc3nc(Cl)ncc3F)ccc2O1` [Compound 1051, 2-Chloro-N4-(3,4-dihydro-2,2-dimethyl-4H-5-pyrid[1,4]oxazin-6-yl)-5-fluoro-4-pyrimidineamine] was tested. Which IC50 [1, 6] did it give?
A: > 10 µM

Q: And the IC50 [2]?
A: > 10 µM

Q: How did the IC50 [1, 6] turn out when `Cn1ncc2ccc(Nc3ncc(F)c(Nc4ccc5c(n4)NCC(C)(C)O5)n3)cc21` [Compound 1052, N4-(3,4-Dihydro-2,2-dimethyl-4H-5-pyrid[1,4]oxazin-6-yl)-5-fluoro-N2-(1-methylindazol-6-yl)-2,4-pyrimidinediamine] was run?
A: < 10 µM

Q: What about the IC50 [1, 5] of the same molecule?
A: < 10 µM

Q: And the IC50 [2]?
A: < 10 µM

Q: For `CNC(=O)COc1cccc(Nc2ncc(F)c(Nc3ccc4c(n3)NCC(C)(C)O4)n2)c1` [Compound 1053, N4-(3,4-Dihydro-2,2-dimethyl-4H-5-pyrid[1,4]oxazin-6-yl)-5-fluoro-N2-[3-(N-methylamino)carbonylmethyleneoxyphenyl]-2,4-pyrimidinediamine], which IC50 [1, 6] is on record?
A: < 10 µM

Q: And the IC50 [1, 5]?
A: < 10 µM

Q: And the IC50 [2]?
A: > 10 µM

Q: Which results are given for `CNC(=O)c1ccc(Nc2ncc(F)c(Nc3ccc4c(n3)NC(=O)C(C)(C)O4)n2)cc1Cl` [Compound 1054, N2-[3-Chloro-4-(N-methylamino)carbonylphenyl]-N4-(2,2-dimethyl-3-oxo-4H-5-pyrid[1,4]oxazin-6-yl)-5-fluoro-2,4-pyrimidinediamine]?
A: IC50 [1, 6]: < 10 µM; IC50 [1, 5]: < 10 µM; IC50 [2]: > 10 µM

Q: Which IC50 [1, 6] does the source give for `CC1(C)Oc2ccc(Nc3nc(Nc4ccc5c(c4)OCCO5)ncc3F)nc2NC1=O` [Compound 1055, N4-(2,2-Dimethyl-3-oxo-4H-5-pyrid[1,4]oxazin-6-yl)-N2-(3,4-ethylenedioxyphenyl)-5-fluoro-2,4-pyrimidinediamine] here?
A: < 10 µM

Q: And the IC50 [1, 5]?
A: < 10 µM

Q: What about the IC50 [2] of the same molecule?
A: > 10 µM

Q: For `Cn1ncc2ccc(Nc3ncc(F)c(Nc4ccc5c(n4)NC(=O)C(C)(C)O5)n3)cc21` [Compound 1056, N4-(2,2-Dimethyl-3-oxo-4H-5-pyrid[1,4]oxazin-6-yl)-5-fluoro-N2-[1-methylindazol-6-yl]-2,4-pyrimidinediamine Hydrogen Chloride Salt], which IC50 [1, 6] is on record?
A: < 10 µM

Q: And the IC50 [1, 5]?
A: < 10 µM

Q: And the IC50 [2]?
A: > 10 µM

Q: Which results are given for `Cn1ncc2ccc(Nc3ncc(F)c(Nc4ccc5c(n4)NC(=O)C(C)(C)O5)n3)cc21` [Compound 1057, N4-(2,2-Dimethyl-3-oxo-4H-5-pyrid[1,4]oxazin-6-yl)-5-fluoro-N2-[1-methylindazol-6-yl]-2,4-pyrimidinediamine p-Toluenesulfonic Acid Salt]?
A: IC50 [1, 6]: < 10 µM; IC50 [1, 5]: < 10 µM; IC50 [2]: > 10 µM

Q: With `CC(=O)N1CCN(c2cccc(Nc3ncc(F)c(NC4CCC4)n3)c2)CC1` [Compound 1085, N2-[3-(4-Acetylpiperazino)phenyl]-N4-cyclobutyl-5-fluoro-2,4-pyrimidinediamine] as the molecule, how does the IC50 [1, 3] read?
A: < 10 µM

Q: What about the IC50 ([2]; Homo sapiens, Mast cell) of the same molecule?
A: > 10 µM

Q: Which results are given for `CC(C)(C)c1cc(Nc2ncc(F)c(Nc3ccc4c(n3)NC(=O)CO4)n2)n[nH]1` [Compound 1086, N2-(5-tert-Butylpyrazol-3-yl)-5-fluoro-N4-(3-oxo-2H,4H-5-pyrid[1,4]oxazin-6-yl)-2,4-pyrimidinediamine]?
A: IC50 [1, 6]: < 10 µM; IC50 [2]: > 10 µM

Q: What does the source list for `Cc1cc(C)cc(Nc2ncc(F)c(NC3CCC3)n2)c1` [Compound 1087, N4-Cyclobutyl-N2-(3,5-dimethylphenyl)-5-fluoro-2,4-pyrimidinediamine]?
A: IC50 [1, 3]: < 10 µM; IC50 [1, 4]: < 10 µM; IC50 ([2]; Homo sapiens, Mast cell): > 10 µM

Q: How did the IC50 [1, 3] turn out when `COc1cc(Nc2ncc(F)c(NC3CCC3)n2)cc(OC)c1` [Compound 1088, N4-Cyclobutyl-N2-(3,5-dimethoxyphenyl)-5-fluoro-2,4-pyrimidinediamine] was run?
A: < 10 µM

Q: And the IC50 [1, 4]?
A: < 10 µM

Q: And the IC50 ([2]; Homo sapiens, Mast cell)?
A: > 10 µM
